The target of one test is T1, vanilloid receptor (Rattus norvegicus, UniProt O35433).
T1 construct: DRG nerve cells from the primary culture of 2 days were equilibrated; endogenous in cells; host or cells: primary culture of dorsal root ganglion neurons from neonatal SD rats
As to the kind of experiment: 45Ca influx test (antagonist calcium uptake test) in rat DRG neurons stimulated with capsaicin. The settings on record: neonatal SD rat DRG neurons; capsaicin 0.5 μM; 45Ca. It is filed as cell-based. The essentials: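 Neonatal SD rat DRG neurons, cultured 2 days with NGF 200 ng/ml, exposed to test compound plus 0.5 μM capsaicin and 45Ca (10 μCi/ml) in HEPES-buffered Ca/Mg-free HBSS, pH 7.4, 10 min at room temperature. Influx counted by scintillation; activity as percent inhibition of the 0.5 μM capsaicin maximal response.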

Another test concerns Male ICR mice. Nature of the test: Analgesic activity test: mouse writhing test by inducing with phenyl-p-quinone. It is filed as in vivo. To be noted: po, p.o., read-out: Analgesic effect (% Inhibition). The protocol: 2. Analgesic Activity Test: Mouse Writhing Test by Inducing with Phenyl-p-quinone Male ICR mice (mean body weight 25 g) were maintained in a controlled lighting environment (12 h on/12 h off) for experiment. Animals received an intraperitoneal injection of 0.3 ml of the chemical irritant phenyl-p-quinone (dissolved in saline containing 5% ethanol to be a close of 4.5 mg/kg) and 6 mins later, the number of abdominal constrictions was counted in the subsequent 6 mins period. Animals (10 animals/group) received 0.2 ml of test compounds solution in vehicle of ethanol/Tween 80/saline (Oct. 10, 1980) intraperitoneally 30 min before the injection of phenyl-p-quinone. In the case of oral administration, 0.2 ml of test compounds solution in vehicle of ethanol/Tween 80/saline (5/5/90) were administered 54 min prior to the 0.2 ml of 0.02% phenyl-p-quinone injection. A reduction in the number of writhes responding to the test drug compound relative to the number responding in saline control group was considered to be indicative of an analgesic effect. Analgesic effect was calculated by % inhibition equation (% inhibition=(C-T)/C×100), wherein C and T represent the number of writhes in control and compound-treated group, respectively.

In US8691855B2, “Compounds, isomer thereof, or pharmaceutically acceptable salts thereof as vanilloid receptor antagonist and pharmaceutical compositions containing the same” (Amorepacific Corporation, priority 2008, dated 2014) one finds IC50 and inhibition in vivo data, which are given here for 17 compounds.

Structures are written as SMILES.

T1 sequence (O35433 whole entry): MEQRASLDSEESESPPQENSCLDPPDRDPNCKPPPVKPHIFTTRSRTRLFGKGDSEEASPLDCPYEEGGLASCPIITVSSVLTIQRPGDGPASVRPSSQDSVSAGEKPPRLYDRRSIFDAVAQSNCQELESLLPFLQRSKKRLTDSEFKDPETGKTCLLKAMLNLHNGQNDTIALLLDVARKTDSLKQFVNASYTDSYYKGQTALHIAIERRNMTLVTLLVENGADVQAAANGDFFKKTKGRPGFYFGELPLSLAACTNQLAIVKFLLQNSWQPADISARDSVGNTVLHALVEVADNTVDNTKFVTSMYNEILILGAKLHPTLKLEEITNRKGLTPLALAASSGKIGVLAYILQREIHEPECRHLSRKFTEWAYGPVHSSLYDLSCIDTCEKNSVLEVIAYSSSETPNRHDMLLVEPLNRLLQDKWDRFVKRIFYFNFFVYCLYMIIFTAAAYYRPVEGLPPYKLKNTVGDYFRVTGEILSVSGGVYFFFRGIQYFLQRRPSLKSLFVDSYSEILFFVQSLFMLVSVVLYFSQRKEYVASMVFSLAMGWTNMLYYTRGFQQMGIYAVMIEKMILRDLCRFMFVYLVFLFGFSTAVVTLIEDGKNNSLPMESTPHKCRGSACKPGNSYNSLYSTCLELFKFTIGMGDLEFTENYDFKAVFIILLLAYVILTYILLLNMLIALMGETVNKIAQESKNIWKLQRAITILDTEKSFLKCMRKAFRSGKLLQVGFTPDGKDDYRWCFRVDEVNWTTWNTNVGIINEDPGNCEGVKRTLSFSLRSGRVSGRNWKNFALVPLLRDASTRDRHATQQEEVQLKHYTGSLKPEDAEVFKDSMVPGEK

As for `C[C@@H](NC(=O)c1coc(-c2cccc(C(F)(F)F)c2)n1)c1cc(F)c(NS(C)(=O)=O)c(F)c1` [Example 67, 2-(3-Trifluoromethyl-phenyl)-oxazole-4-carboxylic acid [1-(3,5-difluoro-4-methanesulfonylamino-phenyl)-ethyl]-amide], on vanilloid receptor, the IC50 turned out to be 360 nM. Also, in the test on Male ICR mice, the inhibition in vivo at 3 mg/kg was determined as 43%.

Take `C[C@@H](NC(=O)c1ccc(-c2cc(C(F)(F)F)cc(C(F)(F)F)c2)o1)c1cc(F)c(NS(C)(=O)=O)c(F)c1` [Example 123, 5-(3,5-Bis-trifluoromethyl-phenyl)-furan-2-carboxylic acid [1-(3,5-difluoro-4-methanesulfonylamino-phenyl)-ethyl]-amide]: the half-maximal inhibitory concentration (IC50) on vanilloid receptor turned out to be 45 nM. Moreover, the inhibition in vivo at 0.3 mg/kg in the test on Male ICR mice was determined as 21%.

On to `C[C@@H](NC(=O)c1coc(-c2cccc(C3CC3)c2)n1)c1cc(F)c(NS(C)(=O)=O)c(F)c1` [Example 100, 2-(3-Cyclopropyl-phenyl)-oxazole-4-carboxylic acid [1-(3,5-difluoro-4-methanesulfonylamino-phenyl)-ethyl]-amide], for which the 50% inhibitory concentration (IC50) at vanilloid receptor was found to be 48 nM. Moreover, the inhibition in vivo at 3 mg/kg in the test on Male ICR mice came to 35%.

On to `C[C@@H](NC(=O)c1csc(-c2cc(C(F)(F)F)cc(C(F)(F)F)c2)n1)c1cc(F)c(NS(C)(=O)=O)c(F)c1` [Example 93, 2-(3,5-Bis-trifluoromethyl-phenyl)-thiazole-4-carboxylic acid [1-(3,5-difluoro-4-methanesulfonylamino-phenyl)-ethyl]-amide], for which the 50% inhibitory concentration (IC50) at vanilloid receptor is 910 nM. For the same compound, the inhibition in vivo at 3 mg/kg in the test with Male ICR mice stood at 41%.

With `C[C@@H](NC(=O)c1coc(-c2cc(C(F)(F)F)cc(C(F)(F)F)c2)n1)c1cc(F)c(NS(C)(=O)=O)c(F)c1` [Example 87, 2-(3,5-Bis-trifluoromethyl-phenyl)-oxazole-4-carboxylic acid [1-(3,5-difluoro-4-methanesulfonylamino-phenyl)-ethyl]-amide], the IC50 on vanilloid receptor is 140 nM. Besides, the inhibition in vivo at 3 mg/kg with Male ICR mice was 59%.

In the case of `C[C@@H](NC(=O)c1coc(Oc2cccc(C3CC3)c2)n1)c1cc(F)c(NS(C)(=O)=O)c(F)c1` [Example 32, 2-(3-Cyclopropyl-phenoxy)-oxazole-4-carboxylic acid [1-(3,5-difluoro-4-methanesulfonylamino-phenyl)-ethyl]-amide], at vanilloid receptor, the 50% inhibitory concentration (IC50) was 280 nM. Further, in the test with Male ICR mice, the inhibition in vivo at 3 mg/kg was 32%.

In the case of `C[C@@H](NC(=O)c1csc(-c2cccc(C3CC3)c2)n1)c1cc(F)c(NS(C)(=O)=O)c(F)c1` [Example 101, 2-(3-Cyclopropyl-phenyl)-thiazole-4-carboxylic acid [1-(3,5-difluoro-4-methanesulfonylamino-phenyl)-ethyl]-amide], on vanilloid receptor, the concentration for half-maximal inhibition (IC50) is 73 nM. In the test with Male ICR mice, the inhibition in vivo at 3 mg/kg turned out to be 33%.

Take `CC(c1cccc(Oc2nc(C(=O)N[C@H](C)c3cc(F)c(NS(C)(=O)=O)c(F)c3)co2)c1)C(F)(F)F` (stereo partly shown) [Example 35, 2-[3-(2,2,2-Trifluoro-1-methyl-ethyl)-phenoxy]-oxazole-4-carboxylic acid [1-(3,5-difluoro-4-methanesulfonylamino-phenyl)-ethyl]-amide]: the 50% inhibitory concentration (IC50) at vanilloid receptor was determined as 1800 nM. Besides, the inhibition in vivo at 0.3 mg/kg in the test on Male ICR mice is 29%.

As to `C[C@@H](NC(=O)c1coc(Oc2cccc(C(F)(F)F)c2)n1)c1cc(F)c(NS(C)(=O)=O)c(F)c1` [Example 2, 2-(3-Trifluoromethyl-phenoxy)-oxazole-4-carboxylic acid [1-(3,5-difluoro-4-methanesulfonylamino-phenyl)-ethyl]-amide], the IC50 at vanilloid receptor was found to be 410 nM. The inhibition in vivo at 3 mg/kg in the test with Male ICR mice stood at 32%.

Take `CC(C)c1cccc(Oc2nc(C(=O)N[C@H](C)c3cc(F)c(NS(C)(=O)=O)c(F)c3)co2)c1` [Example 4, 2-(3-Isopropyl-phenoxy)-oxazole-4-carboxylic acid [1-(3,5-difluoro-4-methanesulfonylamino-phenyl)-ethyl]-amide]: the IC50 on vanilloid receptor was determined as 80 nM. The inhibition in vivo at 3 mg/kg in the test on Male ICR mice was determined as 28%.

Regarding `C[C@@H](NC(=O)c1coc(Oc2cccc(C(C)(C)C)c2)n1)c1cc(F)c(NS(C)(=O)=O)c(F)c1` [Example 1, 2-(3-tert-Butyl-phenoxy)-oxazole-4-carboxylic acid [1-(3,5-difluoro-4-methanesulfonylamino-phenyl)-ethyl]-amide], the IC50 at vanilloid receptor came out at 150 nM. Besides, in the test with Male ICR mice, the inhibition in vivo at 3 mg/kg turned out to be 21%.

For `C[C@@H](NC(=O)c1coc(Oc2cccc(C(F)(F)F)c2C2CC2)n1)c1cc(F)c(NS(C)(=O)=O)c(F)c1` [Example 46, 2-(2-Cyclopropyl-3-trifluoromethyl-phenoxy)-oxazole-4-carboxylic acid [1-(3,5-difluoro-4-methanesulfonylamino-phenyl)-ethyl]-amide], the IC50 on vanilloid receptor was 430 nM. For the same compound, in the test on Male ICR mice, the inhibition in vivo at 3 mg/kg came out at 53%.

In the case of `CC(C)c1cccc(-c2nc(C(=O)N[C@H](C)c3cc(F)c(NS(C)(=O)=O)c(F)c3)co2)c1` [Example 69, 2-(3-Isopropyl-phenyl)-oxazole-4-carboxylic acid [1-(3,5-difluoro-4-methanesulfonylamino-phenyl)-ethyl]-amide], the IC50 on vanilloid receptor came out at 160 nM. The inhibition in vivo at 0.3 mg/kg with Male ICR mice amounted to 35%.

In the case of `C[C@@H](NC(=O)c1ccc(-c2cccc(C3CC3)c2)o1)c1cc(F)c(NS(C)(=O)=O)c(F)c1` [Example 102, 5-(3-Cyclopropyl-phenyl)-furan-2-carboxylic acid [1-(3,5-difluoro-4-methanesulfonylamino-phenyl)-ethyl]-amide], the half-maximal inhibitory concentration (IC50) on vanilloid receptor came out at 100 nM. Further, the inhibition in vivo at 3 mg/kg with Male ICR mice turned out to be 58%.

Regarding `C[C@@H](NC(=O)c1csc(-c2cccc(C(F)(F)F)c2)n1)c1cc(F)c(NS(C)(=O)=O)c(F)c1` [Example 94, 2-(3-Trifluoromethyl-phenyl)-thiazole-4-carboxylic acid [1-(3,5-difluoro-4-methanesulfonylamino-phenyl)-ethyl]-amide], the IC50 on vanilloid receptor was 360 nM. In addition, in the test with Male ICR mice, the inhibition in vivo at 3 mg/kg worked out at 46%.

For the compound `CC1CCc2c(Oc3nc(C(=O)N[C@H](C)c4cc(F)c(NS(C)(=O)=O)c(F)c4)co3)cccc21` (stereo partly shown) [Example 30, 2-(1-Methyl-indan-4-yloxy)-oxazole-4-carboxylic acid [1-(3,5-difluoro-4-methanesulfonylamino-phenyl)-ethyl]-amide], on vanilloid receptor, the 50% inhibitory concentration (IC50) stood at 50 nM. For the same compound, the inhibition in vivo at 3 mg/kg in the test with Male ICR mice is 16%.

As for `CCCc1c(Oc2nc(C(=O)N[C@H](C)c3cc(F)c(NS(C)(=O)=O)c(F)c3)co2)cccc1C(F)(F)F` [Example 42, 2-(2-Propyl-3-trifluoromethyl-phenoxy)-oxazole-4-carboxylic acid [1-(3,5-difluoro-4-methanesulfonylamino-phenyl)-ethyl]-amide], the IC50 on vanilloid receptor was 130 nM. Further, the inhibition in vivo at 0.3 mg/kg in the test with Male ICR mice came out at 30%.
